In patent publication US10947213B1 (Merck Patent GmbH, priority 2015, dated 2021):
Structures can show the parent of a compound that is named as a salt.

Molecular target: T1, TLR7/NFKb HEK cells (Homo sapiens, UniProt Q9NYK1)
T1 construct: expressed in transfected cells; host or cells: HEK cells (TLR7/NFKb reporter line)
T1 sequence (Q9NYK1 27-1049): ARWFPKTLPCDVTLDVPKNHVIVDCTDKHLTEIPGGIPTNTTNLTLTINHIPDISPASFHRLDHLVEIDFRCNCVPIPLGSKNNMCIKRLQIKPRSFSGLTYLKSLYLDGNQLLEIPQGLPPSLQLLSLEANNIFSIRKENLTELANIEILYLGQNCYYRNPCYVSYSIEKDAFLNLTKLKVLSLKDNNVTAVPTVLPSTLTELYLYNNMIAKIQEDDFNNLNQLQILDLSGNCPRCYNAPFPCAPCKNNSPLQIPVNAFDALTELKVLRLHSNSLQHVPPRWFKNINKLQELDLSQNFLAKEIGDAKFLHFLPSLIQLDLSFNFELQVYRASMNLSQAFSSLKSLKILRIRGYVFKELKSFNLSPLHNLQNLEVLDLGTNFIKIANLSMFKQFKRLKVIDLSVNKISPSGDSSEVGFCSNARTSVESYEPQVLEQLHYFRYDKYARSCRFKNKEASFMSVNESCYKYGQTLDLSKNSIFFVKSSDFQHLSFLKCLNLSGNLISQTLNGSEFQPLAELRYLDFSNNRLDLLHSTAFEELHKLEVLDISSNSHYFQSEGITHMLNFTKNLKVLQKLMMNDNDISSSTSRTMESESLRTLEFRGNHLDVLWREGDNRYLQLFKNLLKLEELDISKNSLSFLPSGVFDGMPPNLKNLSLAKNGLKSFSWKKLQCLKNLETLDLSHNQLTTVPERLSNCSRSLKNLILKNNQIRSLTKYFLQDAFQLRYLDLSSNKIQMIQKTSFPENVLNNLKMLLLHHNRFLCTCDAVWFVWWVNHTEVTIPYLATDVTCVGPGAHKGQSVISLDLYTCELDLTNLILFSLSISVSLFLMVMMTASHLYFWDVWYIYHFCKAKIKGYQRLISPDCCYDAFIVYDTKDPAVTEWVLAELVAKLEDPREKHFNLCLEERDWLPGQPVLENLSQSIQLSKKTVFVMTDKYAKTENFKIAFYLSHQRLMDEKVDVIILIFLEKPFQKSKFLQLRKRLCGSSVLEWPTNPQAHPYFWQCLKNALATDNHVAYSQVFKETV
Test: HEK Cell Assay (TLR7/NFKb reporter, Steady-Glo luciferase readout)
Type: cell-based
Details: 30 min compound preincubation, then R*48 agonist for 5 hours, read-out: Potency
Procedure, shortened: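 Steady-Glo luminescence after 5 h stimulation with R*48 agonist, following 30 min compound preincubation. Assay run in HEK cells carrying a TLR7/NFKb luciferase reporter, plated at 5000 cells/well and grown 24 h at 37° C (10% CO2) before treatment.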

IC50: < 1000 nM
SMILES: Cc1ccc(N2C[C@H](N)C[C@H](C(F)(F)F)C2)c2cccnc12 [Compound 586, (3R,5S)-1-(8-Methyl-quinolin-5-yl)-5-trifluoromethyl-piperidin-3-ylamine hydrochloride]
